The assay has as its target T1, PI3K (p110α/p85α) (Homo sapiens, UniProt P42336).
T1 construct: purchased Carna Biosciences 07CBS-0402A
Description: PI3K activity assay (ADP Hunter Plus). It is filed as biochemical. The following applies: read-out: PI3Kα IC50. The protocol: The kinase activity was measured by using the commercial ADP Hunter™ Plus assay available from DiscoveRx, (#33-016), which is a homogeneous assay to measure the accumulation of ADP, a universal product of kinase activity. The enzyme, PI3K (p110α/p85α, was purchased from Carna Biosciences (#07CBS-0402A). The assay was done following the manufacturer recommendations with slight modifications: Mainly the kinase buffer was replace by 50 mM HEPES, pH 7.5, 3 mM MgCl2, 100 mM NaCl, 1 mM EGTA, 0.04% CHAPS, 2 mM TCEP and 0.01 mg/ml BGG. The PI3K was assayed in a titration experiment to determine the optimal protein concentration for the inhibition assay. To calculate the IC50 of the ETP-compounds, serial 1:5 dilutions of the compounds were added to the enzyme at a fixed concentration (2.5 μg/ml. The enzyme was preincubated with the inhibitor and 30 μM PIP2 substrate (P9763, Sigma) for 5 min and then ATP was added to a final 50 μM concentration. Reaction was carried out for 1 hour at 25° C. Reagent A and B were sequentially added to the wells and plates were incubated for 30 min at 37° C. Fluorescence counts were read in a Victor instrument (Perkin Elmer) with the recommended settings (544 and 580 nm as excitation and emission wavelengths, respectively). Values were normalized against the control activity included for each enzyme (i.e., 100% PI3 kinase activity, without compound). These values were plot against the inhibitor concentration and were fit to a sigmoid dose-response curve by using the Graphad software.

Where “and” joins values, the source holds several entries; their conditions need not be identical. Equal values may be shown once.

T1 sequence (P42336 whole entry): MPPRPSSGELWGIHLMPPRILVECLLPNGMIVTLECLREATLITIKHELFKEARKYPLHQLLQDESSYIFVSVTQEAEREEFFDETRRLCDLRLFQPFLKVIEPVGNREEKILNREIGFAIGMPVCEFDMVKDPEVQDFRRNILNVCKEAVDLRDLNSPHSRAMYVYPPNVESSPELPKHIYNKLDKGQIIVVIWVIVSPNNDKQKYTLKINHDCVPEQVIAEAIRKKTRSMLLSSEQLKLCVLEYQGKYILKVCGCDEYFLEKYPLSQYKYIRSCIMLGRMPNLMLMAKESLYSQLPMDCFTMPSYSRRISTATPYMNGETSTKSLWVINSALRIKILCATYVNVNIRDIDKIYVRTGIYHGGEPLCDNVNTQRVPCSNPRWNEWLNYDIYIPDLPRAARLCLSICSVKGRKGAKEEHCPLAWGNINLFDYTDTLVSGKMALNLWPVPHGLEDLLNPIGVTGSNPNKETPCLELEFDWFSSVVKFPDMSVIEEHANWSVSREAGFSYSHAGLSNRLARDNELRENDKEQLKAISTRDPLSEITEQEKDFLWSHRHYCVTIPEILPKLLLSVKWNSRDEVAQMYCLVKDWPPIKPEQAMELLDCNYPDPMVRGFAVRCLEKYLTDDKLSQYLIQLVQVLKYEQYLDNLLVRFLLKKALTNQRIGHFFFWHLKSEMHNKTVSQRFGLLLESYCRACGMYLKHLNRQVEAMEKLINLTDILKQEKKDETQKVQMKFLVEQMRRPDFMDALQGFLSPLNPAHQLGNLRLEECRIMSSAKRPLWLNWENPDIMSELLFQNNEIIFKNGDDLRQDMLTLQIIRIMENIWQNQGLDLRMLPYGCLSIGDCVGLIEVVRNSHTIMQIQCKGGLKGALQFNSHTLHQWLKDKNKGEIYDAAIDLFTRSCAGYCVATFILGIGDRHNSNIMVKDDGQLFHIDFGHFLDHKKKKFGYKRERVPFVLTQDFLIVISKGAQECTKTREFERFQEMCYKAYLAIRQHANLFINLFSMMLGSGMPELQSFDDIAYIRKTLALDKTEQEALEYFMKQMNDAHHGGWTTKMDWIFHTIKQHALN
T1 sequence (P27986 whole entry partner): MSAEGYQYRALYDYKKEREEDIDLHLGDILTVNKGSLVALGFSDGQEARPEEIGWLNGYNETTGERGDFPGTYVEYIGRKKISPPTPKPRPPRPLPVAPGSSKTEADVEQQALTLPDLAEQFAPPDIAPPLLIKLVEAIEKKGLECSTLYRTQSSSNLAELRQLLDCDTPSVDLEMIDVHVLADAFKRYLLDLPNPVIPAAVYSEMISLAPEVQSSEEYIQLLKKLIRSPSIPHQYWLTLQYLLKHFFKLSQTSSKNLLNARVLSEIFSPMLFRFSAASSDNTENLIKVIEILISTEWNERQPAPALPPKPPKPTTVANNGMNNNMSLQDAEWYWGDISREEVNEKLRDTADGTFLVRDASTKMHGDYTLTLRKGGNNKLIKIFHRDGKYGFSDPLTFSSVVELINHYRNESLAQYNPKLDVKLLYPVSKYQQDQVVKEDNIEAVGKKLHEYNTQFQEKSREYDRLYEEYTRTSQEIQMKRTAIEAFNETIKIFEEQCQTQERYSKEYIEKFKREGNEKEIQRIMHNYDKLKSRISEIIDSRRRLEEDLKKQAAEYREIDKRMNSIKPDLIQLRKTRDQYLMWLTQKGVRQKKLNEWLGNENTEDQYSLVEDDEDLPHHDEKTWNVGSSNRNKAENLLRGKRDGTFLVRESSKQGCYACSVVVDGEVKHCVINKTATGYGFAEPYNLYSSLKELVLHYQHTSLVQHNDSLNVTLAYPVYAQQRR

In the case of `NC(=O)c1cn2nc(-c3cnc(N)nc3)nc(N3CCOCC3)c2n1` [1-01], the IC50 (in general, the midpoint of a concentration-inhibition curve) is 19 nM.

Turning to `COCCNC(=O)c1cn2nc(-c3cnc(N)nc3)nc(N3CCOCC3)c2n1` [1-02], the IC50 amounted to 3 nM.

For `COCCNC(=O)c1cc2c(N3CCOCC3)nc(-c3cnc(N)nc3)cn2n1` [1-03], the IC50 is 29 nM and < 100 nM.

`Nc1ncc(-c2cn3nc(C(=O)NC4CCOCC4)cc3c(N3CCOCC3)n2)cn1` [1-04]: the IC50 came out at 26 nM.

Consider `NC(=O)c1cc2c(N3CCOCC3)nc(-c3cnc(N)nc3)cn2n1` [1-05, 6-(2-amino-pyrimidin-5-yl)-4-morpholin-4-yl-pyrazolo[1,5-a]pyrazine-2-carboxylic acid amide], for which the IC50 stood at 14 nM.

Regarding `Nc1ncc(-c2cn3nc(C(=O)N4CCCC4)cc3c(N3CCOCC3)n2)cn1` [1-07, [6-(2-amino-pyrimidin-5-yl)-4-morpholin-4-yl-pyrazolo[1,5-a]pyrazin-2-yl]-pyrrolidin-1-yl-methanone], the IC50 worked out at 9 nM.

As to `CN(C)CCCNC(=O)c1cc2c(N3CCOCC3)nc(-c3cnc(N)nc3)cn2n1` [1-09, 6-(2-amino-pyrimidin-5-yl)-4-morpholin-4-yl-pyrazolo[1,5-a]pyrazine-2-carboxylic acid (3-dimethylamino-propyl)-amide], the IC50 is 443 nM.

`Nc1ncc(-c2cn3nc(C(=O)N[C@H]4CC[C@H](O)CC4)cc3c(N3CCOCC3)n2)cn1` [1-10, 6-(2-amino-pyrimidin-5-yl)-4-morpholin-4-yl-pyrazolo[1,5-a]pyrazine-2-carboxylic acid (4-hydroxy-cyclohexyl)-amide]: the IC50 was found to be 16 nM.
